#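 Grown in 96-well plates, cells were treated for 48 hours with each compound at five concentrations. Insufficient inhibition: endpoint recorded as highest concentration tested. GI50 marks 50% less growth. At the TGI there is no net growth.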
# Columns and labels:
# Assay in all cases: inhibition of tumour cell growth, NCI panel, 48 h
# HCT-116 colon = tested on: HCT-116 colon
# HOP-92 NSCLC = tested on: HOP-92 NSCLC
# NCI-H522 lung = tested on: NCI-H522 lung
# SK-MEL-28 melanoma = tested on: SK-MEL-28 melanoma
# SNB-19 CNS = tested on: SNB-19 CNS
# SR leukemia = tested on: SR leukemia
# U251 CNS = tested on: U251 CNS
# UACC-62 melanoma = tested on: UACC-62 melanoma
# UO-31 renal = tested on: UO-31 renal
# MDA-MB-231 breast = tested on: MDA-MB-231 breast
SMILES,TGI (HCT-116 colon),TGI (HOP-92 NSCLC),TGI (NCI-H522 lung),TGI (SK-MEL-28 melanoma),TGI (SNB-19 CNS),TGI (SR leukemia),TGI (U251 CNS),TGI (UACC-62 melanoma),TGI (UO-31 renal),GI50 (HCT-116 colon),GI50 (MDA-MB-231 breast),TGI (MDA-MB-231 breast),GI50 (NCI-H522 lung),GI50 (SK-MEL-28 melanoma),GI50 (SNB-19 CNS),GI50 (SR leukemia),GI50 (U251 CNS),GI50 (UACC-62 melanoma),GI50 (HOP-92 NSCLC),GI50 (UO-31 renal)
CN1N=CSC12C(=O)N(c1ccc(Cl)cc1)C(=O)N2c1ccc(Cl)cc1 (configuration not stated),13.3 µM,8.92 µM,5.73 µM,> 100 µM,69.5 µM,> 100 µM,53.6 µM,29.1 µM,8.08 µM,,,,,,,,,,,
COc1ccccc1NC(=O)c1sc2nc3c(cc2c1N)C(=O)CCC3,> 100 µM,,38.7 µM,> 100 µM,> 100 µM,> 100 µM,> 100 µM,> 100 µM,,6.29 µM,2.91 µM,> 100 µM,0.586 µM,3.46 µM,12.8 µM,> 100 µM,4.64 µM,3.99 µM,,
O=C1C(Cl)=C(Nc2cccc(Cl)c2)C(=O)N1Cc1ccccc1,13.3 µM,26.3 µM,> 100 µM,55.5 µM,55.1 µM,29.3 µM,15.5 µM,27.5 µM,25.8 µM,3.56 µM,,,14.2 µM,19.5 µM,14.5 µM,2.19 µM,3.98 µM,12.4 µM,5.36 µM,6.94 µM
NCCNc1c2c(c(NCCN)c3c(CO)c[nH]c13)C(=O)c1ccccc1C2=O,> 100 µM,> 100 µM,> 100 µM,> 100 µM,> 100 µM,,> 100 µM,> 100 µM,> 100 µM,7.11 µM,15.5 µM,51.4 µM,8.13 µM,24.5 µM,3.34 µM,,2.53 µM,15.2 µM,24 µM,80.8 µM
O=C(Nc1ccccc1-c1n[nH]c(=S)[nH]c1=O)C(F)(F)F,> 100 µM,> 100 µM,> 100 µM,> 100 µM,> 100 µM,> 100 µM,> 100 µM,> 100 µM,> 100 µM,,,,,,,,,,,
CCOC(=O)c1c2c(c(O)c3ccccc3c(O)n(Cc3ccc(OC)cc3)c1C)C(=O)C=CC2=O,> 100 µM,> 100 µM,> 100 µM,> 100 µM,> 100 µM,,> 100 µM,> 100 µM,> 100 µM,> 100 µM,> 100 µM,> 100 µM,> 100 µM,> 100 µM,> 100 µM,,> 100 µM,> 100 µM,> 100 µM,> 100 µM
COc1ccc(C2CC(=O)c3c(O)cc(O)cc3O2)cc1O (configuration not stated),> 100 µM,,> 100 µM,> 100 µM,> 100 µM,,> 100 µM,> 100 µM,> 100 µM,,,,,,,,,,,
Cc1cn(Cc2ccccc2CCO)c(=S)[nH]c1=O,,> 100 µM,> 100 µM,> 100 µM,> 100 µM,,> 100 µM,> 100 µM,> 100 µM,,,,,,,,,,,
CC(C)(C)OC1=C(OC(C)(C)C)C(O)(c2ccccc2)C1=O (configuration not stated),,,,> 100 µM,> 100 µM,,> 100 µM,> 100 µM,> 100 µM,,,,,,,,,,,

# — PubChem BioAssay (NCI)
